# Measurements as given in patent publication US20090068290A1, “BIFEPRUNOX DOSES FOR TREATING SCHIZOPHRENIA” (priority 2006, published 2009).
# Experiments:
# [1] = system: patients with chronic schizophrenia; assay: Time to deterioration, Clinical Study Four (6-month, placebo-controlled); type: in vivo, human; conditions: for proportion of patients who deteriorated / time to deterioration of schizophrenia versus PBO (in words): 6 months; for proportion of patients who deteriorated / estimated hazard ratio relative to PBO, time to deterioration (Cox proportional hazards model) / Hazard Ratio (Cox), time to deterioration / % Deteriorated / No. of Pts Deteriorated: FAS; for time to deterioration of schizophrenia versus PBO (in words): BX 20 and 30 mg/day
# Description: (§1) METHODOLOGY: This study was a multinational, multicenter, randomized, double-blind, parallel-group, placebo-controlled, fixed-dose study. The study consisted of a 3- to 6-day antipsychotic-free run-in period, after which patients were randomised to 6 months of double-blind treatment with fixed doses of bifeprunox (20 mg/day (BX20) or 30 mg/day (BX30)) or placebo (PBO). Patients allocated to the BX groups were up-titrated from 0.25 mg/day over 7 days (BX20) or 8 days (BX30), and then continued on these doses for the remainder of the study. […] At predetermined time points, blood samples were obtained for drug concentration analysis of BX and its major metabolites (3′- and 4′-sulfate conjugates of BX), and pharmaco-economic assessments were performed.
# Investigational Product, Dose and Mode of Administration, Batch Number: Bifeprunox—up-titration over 7 (20 mg) or 8 days (30 mg) to 20 or 30 mg once daily; encapsulated tablets, orally.
# Reference Thera Dose and Mode of Administration: Placebo—encapsulated tablets, orally.
# [2] = system: patients with chronic schizophrenia; assay: CDSS total score, Clinical Study Four; type: in vivo, human; conditions: FAS, ANCOVA; for CDSS total, Adjusted Mean Change from Baseline (LS mean): LOCF
# Description: as §1
# [3] = Pooled metabolic analysis, 6-month study: glucose
# From the text: (§2) OBJECTIVE: To examine the metabolic effects of bifeprunox in patients with acute and stable schizophrenia.
# (§3) METHODS: Metabolic data was compiled from one 6-month and four 6-week studies (i.e., a treatment period) of bifeprunox in patients with stable and acute schizophrenia, respectively. In the 6-month study, patients received bifeprunox (n=331) or placebo (PBO) (n=166). […] Metabolic evaluations included body weight, body mass index (BMI), plasma glucose and lipid profiles. Fasting glucose and lipid values were assessed in one 6-week study and in the 6-month study. Triglyceride:HDL ratio (TG:HDL) was calculated as a marker of insulin resistance. No statistical analyses were performed; only descriptive statistics are presented.
# [4] = system: patients with chronic schizophrenia; assay: Movement rating scales SAS, BAS, AIMS, Clinical Study Four; type: in vivo, human; conditions: for AIMS total score at Month 6: APTS; for proportion of patients normal with respect to SAS status: Month 6
# Description: as §1
# The SAS is used to measure Parkinsonian-type symptoms in patients exposed to antipsychotics. The scale consists of 10 items, each rated on a 5-point scale ranging from 0 (complete absence of the condition) to 4 (presence of the condition in extreme form). The SAS total score is defined as the sum of all item scores, and the range is 0 to 40. A SAS total score of up to 3 is considered normal.
# The BAS is used to rate observable, restless movements of drug-induced akathisia as well as the subjective awareness of restlessness and any distress associated with the akathisia. The scale consists of 3 items that is rated from 0 (no evidence of akathisia) to 3 (severe akathisia). The BAS total score is defined as the sum of the these three BAS item scores and ranges from is 0 to 9. In addition, a global clinical assessment of akathisia is rated from 0 (no evidence of akathisia) to 5 (severe akathisia).
# The AIMS, designed to record the occurrence of dyskinetic movements, consists of 12 items. Items 1 to 7 measure specific involuntary movements on a scale from 0 (none) to 4 (severe). Items 8 to 10 measure global assessment of abnormal movement on a scale from 0 (no awareness) to 4 (aware, severe distress). Items 11 and 12 are questions regarding the dental condition of the patient, with yes/no answers. The total score is calculated by summing AIMS items 1 through 10 and ranges from 0 to 40; the non-global total score is calculated by summing items 1 through 7.
# [5] = Pooled metabolic analysis, 6-week studies: glucose
# From the text: as §2, §3
# [6] = system: patients with chronic schizophrenia; assay: Adverse events incl. EPS TEAEs, Clinical Study Four; type: in vivo, human
# Description: OTHER SECONDARY OBJECTIVE: To evaluate the long-term safety and tolerability of bifeprunox versus placebo.
# as §1
compound,measurement,setting,value
"O=c1[nH]c2cccc(N3CCN(Cc4cccc(-c5ccccc5)c4)CC3)c2o1 [Bifeprunox, 7-[4-([1,1′-biphenyl]-3-ylmethyl)-1-piperazinyl]-2(3H)-benzoxazolone]",proportion of patients who deteriorated,[1]; BX20 (20 mg/day),41%
same,"estimated hazard ratio relative to PBO, time to deterioration (Cox proportional hazards model)",[1]; BX20 (20 mg/day),0.66
same,"Hazard Ratio (Cox), time to deterioration",[1]; BX20 (bifeprunox 20 mg) relative to PBO,0.656
same,% Deteriorated,[1]; BX20 (bifeprunox 20 mg),40.5%
same,No. of Pts Deteriorated,"[1]; BX20 (bifeprunox 20 mg), N 158",64
same,time to deterioration of schizophrenia versus PBO (in words),[1],prevented deterioration of schizophrenia statistically significantly better than placebo
same,time to deterioration of schizophrenia versus PBO (in words),[1]; listed as BX,statistically significantly longer time to deterioration
same,proportion of patients who deteriorated,[1]; BX30 (30 mg/day),38%
same,"estimated hazard ratio relative to PBO, time to deterioration (Cox proportional hazards model)",[1]; BX30 (30 mg/day),0.65
same,"Hazard Ratio (Cox), time to deterioration",[1]; BX30 (bifeprunox 30 mg) relative to PBO,0.653
same,% Deteriorated,[1]; BX30 (bifeprunox 30 mg),38.4%
same,No. of Pts Deteriorated,"[1]; BX30 (bifeprunox 30 mg), N 172",66
same,"CDSS total, Adjusted Mean Change from Baseline (LS mean)","[2]; Month 6, listed as BX20",0.0
same,"CDSS total, Adjusted Mean Change from Baseline (LS mean)","[2]; Month 6, listed as BX30",0.1
same,"CDSS total, Adjusted Mean Change from Baseline (LS mean)","[2]; Week 6, listed as BX20",−0.2
same,"CDSS total, Adjusted Mean Change from Baseline (LS mean)","[2]; Week 6, listed as BX30",−0.1
same,"mean CDSS total scores versus PBO, per-visit LOCF analysis",[2]; either BX group,no statistically significant differences
same,change in mean fasting glucose at endpoint,[3]; 6-month study,+4.32 mg/dL
same,change in non-fasting glucose at endpoint,[3]; bifeprunox total group,+1.16 mg/dL
same,"AIMS score, mean (SD)","[4]; BX20, Baseline, LOCF",1.04 (2.76)
same,"BAS score, mean (SD)","[4]; BX20, Baseline, LOCF",0.44 (1.10)
same,"SAS score, mean (SD)","[4]; BX20, Baseline, LOCF",2.27 (3.72)
same,"AIMS score, mean (SD)","[4]; BX20, Baseline, OC",1.04 (2.76)
same,"BAS score, mean (SD)","[4]; BX20, Baseline, OC",0.46 (1.10)
same,"SAS score, mean (SD)","[4]; BX20, Baseline, OC",2.27 (3.72)
same,"AIMS score, mean (SD)","[4]; BX20, Month 6, LOCF",1.55 (3.92)
same,"BAS score, mean (SD)","[4]; BX20, Month 6, LOCF",0.49 (1.25)
same,"SAS score, mean (SD)","[4]; BX20, Month 6, LOCF",1.22 (2.47)
same,"AIMS score, mean (SD)","[4]; BX20, Month 6, OC",1.08 (2.13)
same,"BAS score, mean (SD)","[4]; BX20, Month 6, OC",0.17 (0.42)
same,"SAS score, mean (SD)","[4]; BX20, Month 6, OC",0.97 (2.20)
same,"AIMS score, mean (SD)","[4]; BX20, Week 6, LOCF",1.59 (3.96)
same,"BAS score, mean (SD)","[4]; BX20, Week 6, LOCF",0.49 (1.21)
same,"SAS score, mean (SD)","[4]; BX20, Week 6, LOCF",1.43 (2.77)
same,"AIMS score, mean (SD)","[4]; BX20, Week 6, OC",1.16 (2.55)
same,"BAS score, mean (SD)","[4]; BX20, Week 6, OC",0.36 (0.99)
same,"SAS score, mean (SD)","[4]; BX20, Week 6, OC",1.31 (2.69)
same,AIMS total score at Month 6,"[4]; BX20, OC",1.08
same,proportion of patients normal with respect to SAS status,[4]; BX20,89%
same,"AIMS score, mean (SD)","[4]; BX30, Baseline, LOCF",1.35 (2.79)
same,"BAS score, mean (SD)","[4]; BX30, Baseline, LOCF",0.45 (1.11)
same,"SAS score, mean (SD)","[4]; BX30, Baseline, LOCF",2.33 (3.53)
same,"AIMS score, mean (SD)","[4]; BX30, Baseline, OC",1.35 (2.79)
same,"SAS score, mean (SD)","[4]; BX30, Baseline, OC",2.33 (3.53)
same,"AIMS score, mean (SD)","[4]; BX30, Month 6, LOCF",2.77 (6.09)
same,"SAS score, mean (SD)","[4]; BX30, Month 6, LOCF",2.09 (3.64)
same,"AIMS score, mean (SD)","[4]; BX30, Month 6, OC",0.86 (3.18)
same,"BAS score, mean (SD)","[4]; BX30, Month 6, OC",0.16 (0.65)
same,"SAS score, mean (SD)","[4]; BX30, Month 6, OC",1.16 (2.78)
same,"AIMS score, mean (SD)","[4]; BX30, Week 6, LOCF",2.83 (6.09)
same,"BAS score, mean (SD)","[4]; BX30, Week 6, LOCF",0.66 (1.55)
same,"SAS score, mean (SD)","[4]; BX30, Week 6, LOCF",2.35 (3.87)
same,"AIMS score, mean (SD)","[4]; BX30, Week 6, OC",1.80 (4.25)
same,"SAS score, mean (SD)","[4]; BX30, Week 6, OC",2.06 (3.41)
same,AIMS total score at Month 6,"[4]; BX30, OC",0.86
same,proportion of patients normal with respect to SAS status,[4]; BX30,78%
same,change in mean fasting glucose at endpoint,[5],-1.44 mg/dL
same,decrease in mean fasting glucose at endpoint,[5],1.6%
same,patients with TEAEs related to EPS that led to withdrawal,[6]; BX20,4 patients
same,weight decreased reported as a TEAE,[6]; BX20,8%
same,"AKATHISIA, %","[6]; BX20, APTS",(6.9) %
same,"Choreoathetosis, %","[6]; BX20, APTS",(1.9) %
same,"DYSKINESIA, %","[6]; BX20, APTS",(1.3) %
same,"Dystonia, %","[6]; BX20, APTS",(0.6) %
same,"EPS TEAEs: MUSCULOSKELETAL AND CONNECTIVE TISSUE DISORDERS, %","[6]; BX20, APTS",(0.6) %
same,"EPS TEAEs: NERVOUS SYSTEM DISORDERS, %","[6]; BX20, APTS",(10.1) %
same,"EXTRAPYRAMIDAL DISORDER, %","[6]; BX20, APTS",(0.6) %
same,"Muscle rigidity, %","[6]; BX20, APTS",(0.6) %
same,"Patients with EPS TEAEs, %","[6]; BX20, APTS",(10.1) %
same,"TREMOR, %","[6]; BX20, APTS",(0.6) %
same,proportion of patients with TEAEs related to EPS,"[6]; BX20, APTS",10%
same,patients with TEAEs related to EPS that led to withdrawal,[6]; BX30,9 patients
same,weight decreased reported as a TEAE,[6]; BX30,8%
same,weight increased reported as a TEAE,[6]; BX30,1.2%
same,"AKATHISIA, %","[6]; BX30, APTS",(4.7) %
same,"Athetosis, %","[6]; BX30, APTS",(0.6) %
same,"Choreoathetosis, %","[6]; BX30, APTS",(0.6) %
same,"DYSKINESIA, %","[6]; BX30, APTS",(6.4) %
same,"EPS TEAEs: MUSCULOSKELETAL AND CONNECTIVE TISSUE DISORDERS, %","[6]; BX30, APTS",(0.6) %
same,"EPS TEAEs: NERVOUS SYSTEM DISORDERS, %","[6]; BX30, APTS",(14.5) %
same,"EXTRAPYRAMIDAL DISORDER, %","[6]; BX30, APTS",(2.9) %
same,"Muscle rigidity, %","[6]; BX30, APTS",(0.6) %
same,"Patients with EPS TEAEs, %","[6]; BX30, APTS",(14.5) %
same,"TREMOR, %","[6]; BX30, APTS",(2.9) %
same,proportion of patients with TEAEs related to EPS,"[6]; BX30, APTS",15%
